Source: ChEMBL document CHEMBL1154450, “Synthesis and biological evaluation of diversely substituted indolin-2-ones” (Eur J Med Chem, 2008)
Activity calls are given as the source filed them. The rule behind the calls is not given here.

Tests used:
Escherichia coli = test: Antibacterial activity against Escherichia coli ATCC 11303 at 300 ug/disk after 24 hrs by paper disk diffusion test; type: functional; settings: for zone of inhibition at 300 µg/disc: ATCC 11303, 24 h, read-out: IZ
[1] = molecular target: Proto-oncogene tyrosine-protein kinase Src (Homo sapiens, UniProt P12931); test: Inhibition of Src
[2] = molecular target: Insulin-like growth factor 1 receptor (Homo sapiens, UniProt P08069); test: Inhibition of IGF1R
Sequence of Insulin-like growth factor 1 receptor (P08069 31-736 limits assumed): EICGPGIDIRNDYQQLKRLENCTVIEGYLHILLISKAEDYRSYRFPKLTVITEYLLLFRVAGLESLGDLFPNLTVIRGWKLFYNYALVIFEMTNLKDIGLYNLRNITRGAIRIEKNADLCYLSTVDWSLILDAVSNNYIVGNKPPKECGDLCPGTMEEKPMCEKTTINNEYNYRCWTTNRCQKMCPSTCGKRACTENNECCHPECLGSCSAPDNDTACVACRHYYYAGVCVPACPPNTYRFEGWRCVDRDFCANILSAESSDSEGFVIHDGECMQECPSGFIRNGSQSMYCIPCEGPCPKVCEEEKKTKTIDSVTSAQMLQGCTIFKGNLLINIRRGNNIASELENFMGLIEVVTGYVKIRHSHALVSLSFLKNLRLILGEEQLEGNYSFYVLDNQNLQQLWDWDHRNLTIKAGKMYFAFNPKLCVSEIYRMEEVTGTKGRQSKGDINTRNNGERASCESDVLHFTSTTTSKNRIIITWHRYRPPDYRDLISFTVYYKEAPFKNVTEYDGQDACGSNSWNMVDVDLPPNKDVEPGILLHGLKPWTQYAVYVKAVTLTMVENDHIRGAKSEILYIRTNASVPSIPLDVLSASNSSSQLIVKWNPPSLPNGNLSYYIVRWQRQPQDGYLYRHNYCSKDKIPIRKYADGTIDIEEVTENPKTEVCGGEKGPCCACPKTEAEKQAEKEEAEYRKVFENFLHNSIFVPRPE
Sequence of Insulin-like growth factor 1 receptor (P08069 741-1367 limits assumed): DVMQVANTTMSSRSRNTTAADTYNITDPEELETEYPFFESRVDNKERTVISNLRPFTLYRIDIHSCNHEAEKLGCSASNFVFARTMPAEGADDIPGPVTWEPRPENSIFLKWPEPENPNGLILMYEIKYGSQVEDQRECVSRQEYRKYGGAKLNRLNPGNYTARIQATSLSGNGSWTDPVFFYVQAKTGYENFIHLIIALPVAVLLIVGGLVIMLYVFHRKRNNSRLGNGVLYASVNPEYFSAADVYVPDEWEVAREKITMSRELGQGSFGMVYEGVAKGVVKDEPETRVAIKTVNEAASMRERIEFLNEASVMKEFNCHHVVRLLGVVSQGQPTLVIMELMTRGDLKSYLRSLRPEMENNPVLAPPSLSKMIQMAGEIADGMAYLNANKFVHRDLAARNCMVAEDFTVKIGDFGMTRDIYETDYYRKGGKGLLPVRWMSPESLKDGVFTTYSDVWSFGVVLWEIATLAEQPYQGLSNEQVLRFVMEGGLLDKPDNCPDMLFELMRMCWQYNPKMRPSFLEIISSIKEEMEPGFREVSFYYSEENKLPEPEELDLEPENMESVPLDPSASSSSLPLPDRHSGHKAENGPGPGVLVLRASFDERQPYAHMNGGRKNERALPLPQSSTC

[3] = molecular target: Vascular endothelial growth factor receptor 2 (Homo sapiens, UniProt P35968); test: Inhibition of KDR
Sequence of Vascular endothelial growth factor receptor 2 (P35968 whole entry): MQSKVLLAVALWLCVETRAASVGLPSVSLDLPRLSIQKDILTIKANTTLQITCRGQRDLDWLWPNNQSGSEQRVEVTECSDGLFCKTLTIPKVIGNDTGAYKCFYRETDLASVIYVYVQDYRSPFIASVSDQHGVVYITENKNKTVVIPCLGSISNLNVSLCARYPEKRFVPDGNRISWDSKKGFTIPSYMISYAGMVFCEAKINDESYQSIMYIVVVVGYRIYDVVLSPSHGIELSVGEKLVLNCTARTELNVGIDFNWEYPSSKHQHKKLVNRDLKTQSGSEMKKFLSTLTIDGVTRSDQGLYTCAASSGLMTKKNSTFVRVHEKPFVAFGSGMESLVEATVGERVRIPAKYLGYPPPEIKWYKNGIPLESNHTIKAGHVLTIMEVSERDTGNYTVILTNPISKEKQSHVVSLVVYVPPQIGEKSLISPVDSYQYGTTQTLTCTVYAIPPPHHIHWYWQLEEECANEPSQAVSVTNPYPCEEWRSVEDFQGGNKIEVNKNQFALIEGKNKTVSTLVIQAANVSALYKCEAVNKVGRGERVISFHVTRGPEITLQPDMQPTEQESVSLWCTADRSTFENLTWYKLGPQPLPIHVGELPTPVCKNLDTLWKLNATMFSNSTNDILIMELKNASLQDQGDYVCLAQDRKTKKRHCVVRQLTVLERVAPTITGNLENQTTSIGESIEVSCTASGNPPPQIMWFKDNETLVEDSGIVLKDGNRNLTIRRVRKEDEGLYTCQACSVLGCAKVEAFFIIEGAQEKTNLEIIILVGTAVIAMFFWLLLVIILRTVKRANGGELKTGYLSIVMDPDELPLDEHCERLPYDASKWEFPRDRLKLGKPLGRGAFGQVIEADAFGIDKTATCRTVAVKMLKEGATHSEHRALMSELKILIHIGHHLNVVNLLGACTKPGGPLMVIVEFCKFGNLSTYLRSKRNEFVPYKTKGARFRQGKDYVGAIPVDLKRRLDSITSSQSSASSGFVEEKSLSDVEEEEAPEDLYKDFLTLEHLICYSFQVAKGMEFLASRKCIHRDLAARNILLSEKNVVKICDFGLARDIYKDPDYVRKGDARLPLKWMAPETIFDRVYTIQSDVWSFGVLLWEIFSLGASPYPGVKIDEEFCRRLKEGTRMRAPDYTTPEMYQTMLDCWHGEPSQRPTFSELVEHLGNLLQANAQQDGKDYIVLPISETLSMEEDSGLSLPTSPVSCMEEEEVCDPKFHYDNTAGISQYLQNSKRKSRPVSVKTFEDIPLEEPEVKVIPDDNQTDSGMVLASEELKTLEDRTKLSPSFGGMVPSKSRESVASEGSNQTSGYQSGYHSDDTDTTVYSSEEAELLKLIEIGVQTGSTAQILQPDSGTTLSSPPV

[4] = Inhibition of PKA
[5] = molecular target: Cyclin-dependent kinase 2 (Homo sapiens, UniProt P24941); test: Inhibition of CDK2/Cyclin A
[6] = molecular target: Hepatocyte growth factor receptor (Homo sapiens, UniProt P08581); test: Inhibition of cMet
[7] = molecular target: Tyrosine-protein kinase ABL1 (Homo sapiens, UniProt P00519); test: Inhibition of c-Abl
Sequence of Tyrosine-protein kinase ABL1 (P00519 whole entry, the tested form may be a part): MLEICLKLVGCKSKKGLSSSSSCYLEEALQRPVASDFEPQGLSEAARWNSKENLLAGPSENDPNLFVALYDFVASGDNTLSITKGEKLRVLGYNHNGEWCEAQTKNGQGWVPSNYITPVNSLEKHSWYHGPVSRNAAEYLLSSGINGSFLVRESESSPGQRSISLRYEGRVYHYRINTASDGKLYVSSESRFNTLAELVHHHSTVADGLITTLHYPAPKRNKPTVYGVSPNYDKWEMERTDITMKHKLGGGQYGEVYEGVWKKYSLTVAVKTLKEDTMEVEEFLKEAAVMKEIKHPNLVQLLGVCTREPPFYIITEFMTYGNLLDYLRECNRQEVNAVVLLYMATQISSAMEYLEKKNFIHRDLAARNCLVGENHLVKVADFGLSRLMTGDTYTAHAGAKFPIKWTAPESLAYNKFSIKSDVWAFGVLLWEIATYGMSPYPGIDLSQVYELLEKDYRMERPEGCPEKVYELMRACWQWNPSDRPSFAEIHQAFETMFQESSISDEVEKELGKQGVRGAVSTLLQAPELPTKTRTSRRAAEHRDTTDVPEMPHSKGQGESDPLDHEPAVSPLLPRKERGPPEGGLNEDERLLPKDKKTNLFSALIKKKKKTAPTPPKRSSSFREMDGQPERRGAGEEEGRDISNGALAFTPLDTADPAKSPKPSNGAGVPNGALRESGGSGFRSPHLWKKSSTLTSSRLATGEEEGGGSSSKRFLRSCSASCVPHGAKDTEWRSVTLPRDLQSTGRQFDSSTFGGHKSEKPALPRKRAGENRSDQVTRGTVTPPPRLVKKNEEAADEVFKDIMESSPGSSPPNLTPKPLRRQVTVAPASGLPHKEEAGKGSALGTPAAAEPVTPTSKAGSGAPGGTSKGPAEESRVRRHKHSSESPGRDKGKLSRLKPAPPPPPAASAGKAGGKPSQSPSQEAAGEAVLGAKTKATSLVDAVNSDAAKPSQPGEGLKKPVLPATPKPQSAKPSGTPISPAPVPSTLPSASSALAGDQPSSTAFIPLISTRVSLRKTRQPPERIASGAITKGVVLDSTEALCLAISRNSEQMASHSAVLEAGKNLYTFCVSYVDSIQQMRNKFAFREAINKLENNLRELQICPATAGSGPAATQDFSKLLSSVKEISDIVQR

Bacillus cereus = test: Antibacterial activity against Bacillus cereus ATCC 14579 at 300 ug/disk after 24 hrs by paper disk diffusion test; type: functional; settings: ATCC 14579, 24 h, read-out: IZ
[8] = molecular target: Proto-oncogene tyrosine-protein kinase receptor Ret (Homo sapiens, UniProt P07949); test: Inhibition of Ret
Sequence of Proto-oncogene tyrosine-protein kinase receptor Ret (P07949 whole entry, the tested form may be a part): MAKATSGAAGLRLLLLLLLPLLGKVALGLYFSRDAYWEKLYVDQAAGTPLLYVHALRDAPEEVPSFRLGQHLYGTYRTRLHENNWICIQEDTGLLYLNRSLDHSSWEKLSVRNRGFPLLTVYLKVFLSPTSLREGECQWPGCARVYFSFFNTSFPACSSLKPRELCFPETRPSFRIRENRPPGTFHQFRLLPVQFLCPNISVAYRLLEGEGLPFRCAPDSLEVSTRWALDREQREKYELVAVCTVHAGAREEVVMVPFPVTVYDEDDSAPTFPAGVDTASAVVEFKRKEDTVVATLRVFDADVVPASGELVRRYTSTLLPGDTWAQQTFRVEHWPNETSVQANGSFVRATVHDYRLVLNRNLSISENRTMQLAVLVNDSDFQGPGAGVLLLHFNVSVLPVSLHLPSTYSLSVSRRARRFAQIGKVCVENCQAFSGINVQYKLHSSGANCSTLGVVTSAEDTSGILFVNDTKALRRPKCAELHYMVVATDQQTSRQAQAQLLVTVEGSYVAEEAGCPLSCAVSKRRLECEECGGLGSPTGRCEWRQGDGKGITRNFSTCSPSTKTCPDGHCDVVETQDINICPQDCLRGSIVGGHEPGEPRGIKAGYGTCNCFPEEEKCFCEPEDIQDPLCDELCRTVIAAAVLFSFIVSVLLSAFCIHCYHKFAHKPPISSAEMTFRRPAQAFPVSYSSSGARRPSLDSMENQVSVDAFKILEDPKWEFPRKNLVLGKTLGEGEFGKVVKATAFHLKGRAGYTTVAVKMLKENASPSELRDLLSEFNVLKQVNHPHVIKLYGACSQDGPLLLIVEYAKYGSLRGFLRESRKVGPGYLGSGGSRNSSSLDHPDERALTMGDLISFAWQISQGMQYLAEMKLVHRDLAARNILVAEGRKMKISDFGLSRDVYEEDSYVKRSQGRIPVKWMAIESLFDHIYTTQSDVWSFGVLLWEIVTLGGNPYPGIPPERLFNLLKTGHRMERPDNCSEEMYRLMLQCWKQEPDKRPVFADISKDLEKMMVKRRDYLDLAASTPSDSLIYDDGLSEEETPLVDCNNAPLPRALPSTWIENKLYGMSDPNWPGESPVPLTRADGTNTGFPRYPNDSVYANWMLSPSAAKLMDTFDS

Streptomyces chartreusis = test: Antibacterial activity against Streptomyces chartreusis NRRL 11407 at 300 ug/disk after 24 hrs by paper disk diffusion test; type: functional; settings: NRRL 11407, 24 h, read-out: IZ
Candida albicans = test: Antimicrobial activity against Candida albicans IP444 at 300 ug/disk after 24 hrs by paper disk diffusion test; type: functional; settings: for zone of inhibition at 300 µg/disc: read-out: IZ

SMILES: N[C@@H](CCCN/C=C1\C(=O)Nc2ccc(Br)cc21)C(=O)O
- Activity (Escherichia coli): inactive
- IC50 [1]: > 10 µM
- IC50 [2]: > 10 µM
- IC50 [3]: > 10 µM
- IC50 [4]: > 10 µM
- IC50 [5]: 6.6 µM
- IC50 [6]: > 10 µM
- IC50 [7]: > 10 µM
- zone of inhibition at 300 µg/disc (Bacillus cereus): 7 mm
- IC50 [8]: > 10 µM
- zone of inhibition at 300 µg/disc (Streptomyces chartreusis): 8 mm
- Activity (Candida albicans): inactive

SMILES: CC1(C)S[C@@H]2[C@H](NC(=O)[C@H](N)c3ccccc3)C(=O)N2[C@H]1C(=O)O [AMPICILLIN]
- zone of inhibition at 300 µg/disc (Escherichia coli): 31 mm
- zone of inhibition at 300 µg/disc (Bacillus cereus): 13 mm
- zone of inhibition at 300 µg/disc (Streptomyces chartreusis): 25 mm

SMILES: C[C@@H]1[C@H](O)[C@@H](C)/C=C/C=C/C=C/C=C/C=C/C=C/C=C/[C@H](O[C@@H]2O[C@H](C)[C@@H](O)[C@H](N)[C@@H]2O)C[C@@H]2O[C@](O)(C[C@@H](O)C[C@@H](O)[C@H](O)CC[C@@H](O)C[C@@H](O)CC(=O)O[C@H]1C)C[C@H](O)[C@H]2C(=O)O [AMPHOTERICIN B]
- zone of inhibition at 300 µg/disc (Candida albicans): 13 mm

SMILES: N[C@@H](CCCCN/C=C1\C(=O)Nc2ccccc21)C(=O)O
- Activity (Escherichia coli): inactive
- IC50 [1]: > 10 µM
- IC50 [2]: > 10 µM
- IC50 [3]: > 10 µM
- IC50 [4]: > 10 µM
- IC50 [6]: > 10 µM
- IC50 [7]: > 10 µM
- zone of inhibition at 300 µg/disc (Bacillus cereus): 6 mm
- IC50 [8]: > 10 µM
- zone of inhibition at 300 µg/disc (Streptomyces chartreusis): 6 mm
- zone of inhibition at 300 µg/disc (Candida albicans): 6 mm

SMILES: N[C@@H](CCCCN/C=C1\C(=O)Nc2ccc(Br)cc21)C(=O)O
- Activity (Escherichia coli): inactive
- IC50 [1]: > 10 µM
- IC50 [2]: > 10 µM
- IC50 [3]: > 10 µM
- IC50 [4]: > 10 µM
- IC50 [6]: > 10 µM
- IC50 [7]: > 10 µM
- zone of inhibition at 300 µg/disc (Bacillus cereus): 6 mm
- IC50 [8]: > 10 µM
- zone of inhibition at 300 µg/disc (Streptomyces chartreusis): 7 mm
- zone of inhibition at 300 µg/disc (Candida albicans): 6 mm

SMILES: N[C@@H](CCCN/C=C1\C(=O)Nc2ccccc21)C(=O)O
- zone of inhibition at 300 µg/disc (Escherichia coli): 6 mm
- IC50 [1]: > 10 µM
- IC50 [2]: > 10 µM
- IC50 [3]: > 10 µM
- IC50 [4]: > 10 µM
- IC50 [6]: > 10 µM
- IC50 [7]: > 10 µM
- zone of inhibition at 300 µg/disc (Bacillus cereus): 7 mm
- IC50 [8]: > 10 µM
- zone of inhibition at 300 µg/disc (Streptomyces chartreusis): 10 mm
- zone of inhibition at 300 µg/disc (Candida albicans): 6 mm
